Results reported in US10220005B2 (GW Research Limited, priority 2012, dated 2019).

Legend:
piglet model of HI = test: Piglet model of HI, Nissl staining of brain slices (Example 1); assay type: in vivo; conditions: piglets; for effect of co-administered antagonist on the CBD-induced reduction of neuronal death: given with CBD 1 mg/kg i.v., AM630 1 mg/kg, WAY100635 0.1 mg/kg, caffeine 10 mg/kg
Protocol: (§1) A piglet model of HI was used as described in (Alvarez et al. 2008). Briefly, an HI insult is induced in anesthetized 1-3 day-old piglets by occluding both carotid arteries and decreasing inspired oxygen from 21 to 10% for 30 min.
(§2) Thirty minutes after the recovery of HI the test compound was administered via the i.v. route.
(§3) At the end of the experiment, piglets are euthanized and the brain removed; one hemisphere was immediately frozen and stored at −80 ° C. whereas the other one was preserved in 4% paraformaldehide. A sample of frozen brain was obtained to perform a proton magnetic resonance spectroscopy (H+-MRS). Similarly managed piglets but without HI served as controls.

interleukin 1 = test: Piglet model of HI, interleukin 1 in brain tissue by microarrays; assay type: in vivo; conditions: piglets
Protocol: as §1, §2, §3

rat model of HI [1] = test: Rat model of HI, neurobehavioral tests (rotarod, cylinder, novel object); assay type: in vivo, Wistar rats; conditions: rats, CBD 1 mg/kg s.c. single dose, tests at day 35
Protocol: (§4) A rat model of HI was used as described by (Fernandez-Lopez et al., 2007). Briefly, an HI insult is induced in 7-10 day-old Wistar rats by electro-coagulating the left carotid artery under anaesthesia following by the exposure to 10% oxygen for 120 min.
Sham operated pups without hypoxia served as controls, and were treated with vehicle or CBD as indicated. The pups were then returned to their dams.
At day 35 rats underwent neurobehavioral tests: rotarod (to test coordination), cylinder (to test unilateral deficits) and novel object preference (to test memory impairments).

rat model of HI [2] = test: Rat model of HI, magnetic resonance imaging of brain lesion; assay type: in vivo, Wistar rats; conditions: rats, CBD 1 mg/kg s.c. single dose, one month later (P37)
Protocol: as §4
The pups were then returned to their dams.
Rats were then euthanized and the brain removed and stored in 4% paraforlmadehide. Magnetic resonance imaging was performed on the brains to evaluate the damaged area. In some rats, MRI was performed 7 days after HI.

COc1ccc(C(=O)c2c(C)n(CCN3CCOCC3)c3cc(I)ccc23)cc1 [AM]
effect of co-administered antagonist on the CBD-induced reduction of neuronal death (piglet model of HI): blunted
effect of co-administered antagonist on the CBD reduction of IL-1 production (interleukin 1; given with CBD 1 mg/kg i.v., AM630 1 mg/kg, WAY100635 0.1 mg/kg, caffeine 10 mg/kg): blunted

C=C(C)[C@@H]1CCC(C)=C[C@H]1c1c(O)cc(CCCCC)cc1O [CBD, cannabidiol]
percentage of necrotic tissue in both the cortex and the hippocampus (piglet model of HI; CBD 1 mg/kg i.v. 30 min after HI, brain tissue 6 h after HI): reduces
production of IL-1 (concentration of interleukin 1 in brain tissue) (interleukin 1; CBD 1 mg/kg i.v., 6 h after HI, microarrays): reduces
coordination (RotaRod) (rat model of HI [1]): normalization
memory (novel object recognition) (rat model of HI [1]): normalization
motor performance (cylinder rear test) (rat model of HI [1]): normalization
volume of lesion (MRI; printed as brain volume) (rat model of HI [2]): significantly reduced

COc1ccccc1N1CCN(CCN(C(=O)C2CCCCC2)c2ccccn2)CC1 [WAY]
effect of co-administered antagonist on the CBD-induced reduction of neuronal death (piglet model of HI): blunted

Cn1c(=O)c2c(ncn2C)n(C)c1=O [caffeine, Caffeine]
effect of co-administered antagonist on the CBD-induced reduction of neuronal death (piglet model of HI): not by caffeine
